The IC50 is the concentration that inhibits the measured activity by half. The melting point is the temperature, or range, at which the solid turns liquid.

A value given as a limit tells only on which side of the number the result lay.

We go through 33 molecules from patent publication US8232271B2 (priority 2008, dated 2012).

Data set [1] has as its target T1, HCV polymerase (NS5B570n-Con1) (Hepatitis C virus genotype 1b, UniProt Q9WMX2).
T1 construct: contains a 21 amino acid deletion at the C-terminus relative to the full-length HCV polymerase; 6-histidine (N); made in house; host or cells: E. coli BL21(DE) pLysS, plasmid pET17b
Description: HCV NS5B RNA polymerase activity assay. In kind it is biochemical, HCV Con1 strain. The procedure:
The enzymatic activity of HCV polymerase (NS5B570n-Con1) was measured as the incorporation of radiolabeled nucleotide monophosphates into acid insoluble RNA products. Unincorporated radiolabeled substrate was removed by filtration and scintillant was added to the washed and dried filter plate containing radiolabeled RNA product. The amount of RNA product generated by NS5B570-Con1 at the end of the reaction was directly proportional to the amount of light emitted by the scintillant.
The N-terminal 6-histidine tagged HCV polymerase, derived from HCV Con1 strain, genotype 1b (NS5B570n-Con1) contains a 21 amino acid deletion at the C-terminus relative to the full-length HCV polymerase and was purified from E. coli strain BL21(DE) pLysS. The construct, containing the coding sequence of HCV NS5B Con1 (GenBank accession number AJ242654) was inserted into the plasmid construct pET17b, downstream of a T7 promoter expression cassette and transformed into E. coli. A single colony was grown overnight as a starter culture and later used inoculate 10 L of LB media supplemented with 100 μg/mL ampicillin at 37° C. Protein expression was induced by the addition of 0.25 mM isopropyl-β-D-thiogalactopyranoside (IPTG) when optical density at […] of the culture was between 0.6 and 0.8 and cells were harvested after 16 to 18 h at 30° C. NS5B570n-Con1 was purified to homogeneity using a three-step protocol including subsequent column chromatography on Ni-NTA, SP-Sepharose HP and Superdex 75 resins.
Each 50 μl enzymatic reaction contained 20 nM RNA template derived from the complementary sequence of the Internal Ribosome Entry Site (cIRES), 20 nM NS5B570n-Con1 enzyme, 0.5 μCi of tritiated UTP (Perkin Elmer catalog no. TRK-412; specific activity: 30 to 60 Ci/mmol; stock solution concentration from 7.5×10^-5 M to 20.6×10^-6 M), 1 μM each ATP, CTP, and GTP, 40 mM Tris-HCl pH 8.0, 40 mM NaCl, 4 mM DTT (dithiothreitol), 4 mM MgCl2, and 5 μl of compound serial diluted in DMSO. Reaction mixtures were assembled in 96-well filter plates (cat #MADVN0B, Millipore Co.) and incubated for 2 h at 30° C. Reactions were stopped by addition of 10% final (v/v) trichloroacetic acid and incubated for 40 min at 4° C. Reactions were filtered, washed with 8 reaction volumes of 10% (v/v) trichloroacetic acetic acid, 4 reaction volumes of 70% (v/v) ethanol, air dried, and 25 μl of scintillant (Microscint 20, Perkin-Elmer) was added to each reaction well.
The amount of light emitted from the scintillant was converted to counts per minute (CPM) on a Topcount® plate reader (Perkin-Elmer, Energy Range: Low, Efficiency Mode: Normal, Count Time: 1 min, Background Subtract: none, Cross talk reduction: Off).
Data was analyzed in Excel® (Microsoft®) and ActivityBase® (Idbs®). The reaction in the absence of enzyme was used to determine the background signal, which was subtracted from the enzymatic reactions. Positive control reactions were performed in the absence of compound, from which the background corrected activity was set as 100% polymerase activity. All data was expressed as a percentage of the positive control. The compound concentration at which the enzyme-catalyzed rate of RNA synthesis was reduced by 50% (IC50) was calculated by fitting
[formula] equation (i) to the data. where “Y” corresponds to the relative enzyme activity (in %), “% Min” is the residual relative activity at saturating compound concentration, “% Max” is the relative maximum enzymatic activity, “X” corresponds to the compound concentration, and “S” is the Hill coefficient (or slope).

With `COc1cc(C#N)c(-c2ccc[nH]c2=O)cc1C(C)(C)C` [Compound I-91], the melting point fell in the range of 247 to 249 °C. For the same molecule, the midpoint of inhibition in data set [1], the IC50, lay at 374 nM.
The matching figures for `COc1cc(CN(CCOC(C)=O)S(C)(=O)=O)c(-c2ccc[nH]c2=O)cc1C(C)(C)C` [Compound I-30, 2-{[4-tert-Butyl-5-methoxy-2-(2-oxo-1,2-dihydro-pyridin-3-yl)-benzyl]-methanesulfonyl-amino}-ethyl acetate]: 207 to 208 °C and 35 nM.
Molecule `COc1cc(CN(Cc2ccccc2)S(C)(=O)=O)c(-c2ccc[nH]c2=O)cc1C(C)(C)C` [Compound I-26] displayed a melting point of 229 to 230 °C. In data set [1], the IC50 amounted to 145 nM.
The matching figures for `COc1cc(CO)c(-c2ccc[nH]c2=O)cc1C(C)(C)C` [Compound I-2, 3-(5-tert-Butyl-2-hydroxymethyl-4-methoxy-phenyl)-1H-pyridin-2-one]: 215 to 216 °C and 1010 nM.
In the case of `COc1cc(CN2C(=O)CC(C)(C)CC2=O)c(-c2ccc[nH]c2=O)cc1C(C)(C)C` [Compound I-88], the melting point was > 300 °C. In data set [1], this molecule gave an IC50 of 52 nM.
The matching figures for `COc1cc(CN(C)S(C)(=O)=O)c(-c2ccc[nH]c2=O)cc1C(C)(C)C` [Compound I-86]: 230 to 231 °C and 52 nM.
In turn, `COc1cc(CNC(=O)c2ccc(N(S(C)(=O)=O)S(C)(=O)=O)cc2)c(-c2ccc[nH]c2=O)cc1C(C)(C)C` [Compound I-44] gave an IC50 in data set [1] of 774 nM.
In data set [1], `COc1cc(CNC(C)=O)c(-c2ccc[nH]c2=O)cc1C(C)(C)C` [Compound I-12] gave an IC50 of 125 nM.
Molecule `COc1cc(CN(C(C)C)S(C)(=O)=O)c(-c2ccc[nH]c2=O)cc1C(C)(C)C` [Compound I-28] showed a melting point of 285 to 286 °C. For the same molecule, the concentration for half-maximal inhibition (IC50) in data set [1] was found to be 33 nM.
Regarding `COc1cc(CN(CC2CCNC2)S(C)(=O)=O)c(-c2ccc[nH]c2=O)cc1C(C)(C)C` (centres unmarked) [Compound I-31, N-[4-tert-Butyl-5-methoxy-2-(2-oxo-1,2-dihydro-pyridin-3-yl)-benzyl]-N-pyrrolidin-3-ylmethyl-methanesulfonamide], the melting point lay in the range of 158 to 160 °C. In addition, the IC50 in data set [1] was 97 nM.
Take `COc1cc(CC(N)=O)c(-c2ccc[nH]c2=O)cc1C(C)(C)C` [Compound I-11, 2-[4-tert-Butyl-5-methoxy-2-(2-oxo-1,2-dihydro-pyridin-3-yl)-phenyl]-acetamide]: in data set [1], the IC50 was determined as 437 nM.
As for `COc1cc(CNC(=O)c2cccnc2)c(-c2ccc[nH]c2=O)cc1C(C)(C)C` [Compound I-49], in data set [1], the IC50 turned out to be 26 nM.
`COc1cc(CNC(=O)c2ccc(NS(C)(=O)=O)cc2)c(-c2ccc[nH]c2=O)cc1C(C)(C)C` [Compound I-43, N-[4-tert-butyl-5-methoxy-2-(2-oxo-1,2-dihydro-pyridin-3-yl)-benzyl]-4-methanesulfonylamino-benzamide] displayed a melting point of 175 to 180 °C. The molecule also came in with an IC50 in data set [1] of 50 nM.
As for `COc1cc(CNS(C)(=O)=O)c(-c2ccc[nH]c2=O)cc1C(C)(C)C` [Compound I-13, N-[4-tert-Butyl-5-methoxy-2-(2-oxo-1,2-dihydro-pyridin-3-yl)-benzyl]-methane sulfonamide], the IC50 in data set [1] is 64 nM.
Consider `CCN(Cc1cc(OC)c(C(C)(C)C)cc1-c1ccc[nH]c1=O)S(C)(=O)=O` [Compound I-27], for which the melting point fell in the range of 245 to 246 °C. The IC50 in data set [1] was 44 nM.
`CNC(=O)Cc1cc(OC)c(C(C)(C)C)cc1-c1ccc[nH]c1=O` [Compound I-10, 2-[4-tert-Butyl-5-methoxy-2-(2-oxo-1,2-dihydro-pyridin-3-yl)-phenyl]-N-methyl-acetamide] returned an IC50 in data set [1] of 700 nM.
In the case of `COc1cc(CN(CC2CCN(C(C)=O)C2)S(C)(=O)=O)c(-c2ccc[nH]c2=O)cc1C(C)(C)C` (centres unmarked) [Compound I-48, N-(1-acetyl-pyrrolidin-3-ylmethyl)-N-[4-tert-butyl-5-methoxy-2-(2-oxo-1,2-dihydro-pyridin-3-yl)-benzyl]-methanesulfonamide], the melting point fell in the range of 196 to 198 °C. This molecule also registered an IC50 in data set [1] of 84 nM.
For `COc1cc(CS(C)(=O)=O)c(-c2ccc[nH]c2=O)cc1C(C)(C)C` [Compound I-15, 3-(5-tert-Butyl-2-methanesulfonylmethyl-4-methoxy-phenyl)-1H-pyridin-2-one], the IC50 in data set [1] worked out at 746 nM.
As for `COc1cc(CN(C(C)=O)c2ccccc2)c(-c2ccc[nH]c2=O)cc1C(C)(C)C` [Compound I-89], the IC50 in data set [1] was determined as 106 nM.
In data set [1], `COc1cc(CN2CCOC2=O)c(-c2ccc[nH]c2=O)cc1C(C)(C)C` [Compound I-74] displayed an IC50 of 56 nM.
`COc1cc(CNS(N)(=O)=O)c(-c2ccc[nH]c2=O)cc1C(C)(C)C` [Compound I-50, N-[4-tert-Butyl-5-methoxy-2-(2-oxo-1,2-dihydro-pyridin-3-yl)-benzyl]-sulfamide] gave a concentration for half-maximal inhibition (IC50) in data set [1] of 49 nM.
Still for that read-out and setting: for `COc1cc(CN(C)C(C)=O)c(-c2ccc[nH]c2=O)cc1C(C)(C)C` [Compound I-14] the value was 151 nM.
`COc1cc(CN2C(=O)OC[C@H]2C(C)C)c(-c2ccc[nH]c2=O)cc1C(C)(C)C` [Compound I-75]: in data set [1], the midpoint of inhibition, the IC50, lay at 86 nM.
`COc1cc(CN2C(=O)OC[C@@H]2C(C)C)c(-c2ccc[nH]c2=O)cc1C(C)(C)C` [Compound I-76, 3-[5-tert-Butyl-2-((S)-4-isopropyl-2-oxo-oxazolidin-3-ylmethyl)-4-methoxy-phenyl]-1H-pyridin-2-one] gave a 50% inhibitory concentration (IC50) in data set [1] of 134 nM.
The same measure, in the same setting: for `COc1cc(CC(=O)O)c(-c2ccc[nH]c2=O)cc1C(C)(C)C` [Compound I-7, [4-tert-Butyl-5-methoxy-2-(2-oxo-1,2-dihydro-pyridin-3-yl)-phenyl]-acetic acid] the value was 156 nM; for `COc1cc(CCC(=O)O)c(-c2ccc[nH]c2=O)cc1C(C)(C)C` [Compound I-1, 3-[4-tert-Butyl-5-methoxy-2-(2-oxo-1,2-dihydro-pyridin-3-yl)-phenyl]-propionic acid], 273 nM.
As to `COc1cc(CNS(C)(=O)=O)c(-c2cc(F)c[nH]c2=O)cc1C(C)(C)C` [Compound I-45], in data set [1], the midpoint of inhibition, the IC50, lay at 687 nM.
Regarding `COc1cc(CN2CCCC2=O)c(-c2ccc[nH]c2=O)cc1C(C)(C)C` [Compound I-18, 3-[5-tert-Butyl-4-methoxy-2-(2-oxo-pyrrolidin-1-ylmethyl)-phenyl]-1H-pyridin-2-one], the IC50 in data set [1] is 121 nM.
The same measure, in the same setting: the result for `COc1cc(C(=O)N2CCC(Oc3ccccc3)CC2)c(-c2ccc[nH]c2=O)cc1C(C)(C)C` [Compound I-79] reads 1320 nM.
In data set [1], `COc1cc(C(=O)NCC#N)c(-c2ccc[nH]c2=O)cc1C(C)(C)C` [Compound I-85] had a 50% inhibitory concentration (IC50) of 23 nM.
`CNC(=O)c1cc(OC)c(C(C)(C)C)cc1-c1ccc[nH]c1=O` [Compound I-9, 4-tert-Butyl-5-methoxy-N-methyl-2-(2-oxo-1,2-dihydro-pyridin-3-yl)-benzamide] yielded an IC50 in data set [1] of 442 nM.
As to `COc1cc(C(=O)N2CCOC(CO)C2)c(-c2ccc[nH]c2=O)cc1C(C)(C)C` (centres unmarked) [Compound I-78], half-maximal inhibition in data set [1] (IC50) was put at 1410 nM.
`COC(=O)CCc1cc(OC)c(C(C)(C)C)cc1-c1ccc[nH]c1=O` [Compound I-3, 3-[4-tert-Butyl-5-methoxy-2-(2-oxo-1,2-dihydro-pyridin-3-yl)-phenyl]-propionic acid methyl ester]: in data set [1], the midpoint of inhibition, the IC50, lay at 954 nM.
